Measured values from publication PMC7766124, “Improved Cell Selectivity of Pseudin-2 via Substitution in the Leucine-Zipper Motif: In Vitro and In Vivo Antifungal Activity” (Antibiotics, 2020).
Read-outs that look alike come from different tables or passages of the source. No end group written: not given here.

Columns and labels:
A. flavus = assay type: cell-based, Aspergillus flavus (KCTC 6905); settings: 36 h
Source text: (§1) Aspergillus flavus (KCTC 6905), A. fumigatus (KCTC 6145), Fusarium moniliforme (KCTC 6149), F. oxysporum (KCTC 16909), C. albicans (KCTC 7270), C. krusei (CCARM 14017), C. parapsilosis (CCARM 14016), C. tropicalis (KCTC 7221), and T. beigelii (KCTC 7707) were obtained from the Korea Collection for Type Cultures (KCTC) and Culture Collection of Antimicrobial Resistant Microbes (CCARM). Mold and yeast fungi were pre-grown on potato dextrose (PD) and yeast extract peptone dextrose (YPD) agars, respectively.
(§2) Antifungal activity of peptides was performed by microtiter plate assays. Fungal conidia from four-day-old molds were collected using 0.08% Triton X-100 (v/v), and pre-cultivated yeast cells were adjusted to 2 × 10^4 spores/mL in 10 mM sodium phosphate buffer (SP, pH 7.2) or 10 mM 2-(N-morpholino)ethanesulfonic acid (MES) buffer (pH 5.5) supplemented with 20% culture medium, followed by addition to peptide solutions (0.25, 0.5, 1, 1.5, 2, 4, 6, 8, 12, 16, 32, 48, and 64 µM) in 96-well microtiter plates. After incubation for 36 h at 28 °C, the hyphal growth of conidia and the proliferation of yeast cells were observed under a light microscope. All assays were performed in triplicate. The MIC values were defined as the lowest concentration of samples that reduced fungal germination (for mold) or cell proliferation (for yeast) by more than 90% [34].

A. fumigatus = assay type: cell-based, A. fumigatus (KCTC 6145); settings: 36 h
Source text: as §1, §2

F. moniliforme = assay type: cell-based, Fusarium moniliforme (KCTC 6149); settings: 36 h
Source text: as §1, §2

F. oxysporum = assay type: cell-based, F. oxysporum (KCTC 16909); settings: 36 h
Source text: as §1, §2

C. albicans = assay type: cell-based, C. albicans (KCTC 7270); settings: 36 h
Source text: as §1, §2

C. krusei = assay type: cell-based, C. krusei (CCARM 14017); settings: 36 h
Source text: as §1, §2

C. parapsilosis = assay type: cell-based, C. parapsilosis (CCARM 14016); settings: 36 h
Source text: as §1, §2

C. tropicalis = assay type: cell-based, C. tropicalis (KCTC 7221); settings: 36 h
Source text: as §1, §2

T. beigelii = assay type: cell-based, T. beigelii (KCTC 7707); settings: 36 h
Source text: as §1, §2

HaCaT cells = assay: Cytotoxicity, XTT cell viability assay; assay type: cell-based, human; settings: peptides 4-256 µM, 24 h incubation, triplicate
Procedure: Cell viability was assessed using sodium XTT assays. HaCaT (human immortalized keratinocytes) cells were cultured in Dulbecco’s modified Eagle medium (DMEM; ThermoFisher Scientific, Gibco, Waltman, MA, USA) supplemented with antibiotic-antimycotic (ThermoFisher Scientific, Gibco) and 10% fetal bovine serum (FBS; ThermoFisher Scientific, Gibco) at 37 °C in a humidified chamber containing 5% CO2. The cells were seeded at 5 × 10^4 cells/mL in flat-bottom 96-well microtiter plates in triplicate. Twenty-four hours later, cells were treated with two-fold serial dilutions of peptides (ranging from 256 to 4 µM) in medium, and the cells were further incubated for 24 h. Next, activated-XTT solution was added to each well and the plates were additionally incubated for 4 h. Absorbance in each well was measured at wavelengths of 480 and 650 nm using a microtiter SpectraMax M5 reader (Molecular Devices, Sunnyvale, CA, USA). Triton X-100 (0.1% v/v) and DMEM were used as controls for survival.

mouse erythrocytes = assay: Hemolytic assay; assay type: cell-based; settings: 64 µM peptide, 8% (v/v) mRBCs, 37 °C, 2 h (method) / 4 h (figure legend)
Procedure: Mouse blood was collected into sodium heparin-coated tubes (BD Vacutainer; BD Diagnostics, Oxford, UK). The mRBCs were obtained by centrifugation (800× g, 10 min) and washing with PBS. The washed mRBCs were added to a final concentration of 8% (v/v) in 64 µM peptide solution, followed by incubation for 2 h at 37 °C. After centrifugation, each tube was digitally recorded.

C. tropicalis cells [1] = assay: SYTOX Green uptake (membrane permeability); assay type: cell-based; settings: SP buffer pH 7.2, 0.5 μM SYTOX Green, peptides 1-64 µM, monitored 30 min
Procedure: C. tropicalis cells pre-grown at 28 °C were washed and suspended (2 × 10^6 cells/mL) in SP buffer (pH 7.2). The cells were pre-incubated with SYTOX Green (final concentration of 0.5 μM) for 15 min in the dark, followed by adding two-fold serial dilutions of peptides at concentrations of 1 to 64 µM. The fluorescence intensity was monitored for 30 min at 485 (Ex) and 520 (Em) nm using a microtiter SpectraMax M5 reader (Molecular Devices, San Jose, CA, USA).

C. tropicalis cells [2] = assay: Mitochondrial superoxide, MitoSOX Red flow cytometry; assay type: cell-based; settings: peptide at MIC for 8 h
Procedure: Mitochondrial SOX was measured using MitoSOX Red probe. C. tropicalis cells (2 × 10^4 spores/mL) were treated with samples at the appropriate MIC for 8 h and then stained with MitoSOX Red according to the manufacturer’s instructions. The stained cells were acquired by flow cytometry (Attune NxT Acoustic Focusing Cytometer; ThermoFisher Scientific Co., Eugene, OR, USA) at 561 nm by 10,000 total events.

“GLNALKKVFQGIHEAIKLINNHVQ-NH2 [Pseudin-2]” showed an MIC (A. flavus; pH 5.5) of 16 µM, an MIC (A. flavus; pH 7.2) of 64 µM and an MIC (A. fumigatus; pH 5.5) of 24 µM. The MIC (A. fumigatus; pH 7.2) was 64 µM, the MIC (F. moniliforme; pH 5.5) was 64 µM and the MIC (F. moniliforme; pH 7.2) was 32 µM. It also gave an MIC (F. oxysporum; pH 5.5) of 16 µM, an MIC (F. oxysporum; pH 7.2) of 4 µM and an MIC (C. albicans; pH 5.5) of 32 µM. The MIC (C. albicans; pH 7.2) was 12 µM, the MIC (C. krusei; pH 5.5) was 8 (8) µM and the MIC (C. krusei; pH 7.2) was 8 (8) µM. For the same substance, the MIC (C. parapsilosis; pH 5.5) was >64 (>64) µM, the MIC (C. parapsilosis; pH 7.2) was >64 (>64) µM and the MIC (C. tropicalis; pH 5.5) was 2 µM. For the same substance, the MIC (C. tropicalis; pH 7.2) was 4 µM, the MIC (T. beigelii; pH 5.5) was 2 (2) µM and the MIC (T. beigelii; pH 7.2) was 2 (2) µM. For the same substance, the “cytotoxic effects against HaCaT cells” value (HaCaT cells) was “significant, concentration-dependent cytotoxic effects”, the “hemolytic effects (hemoglobin release, by visualization)” value (mouse erythrocytes) was “did not release hemoglobin” and the “SYTOX Green fluorescence intensity” value (C. tropicalis cells [1]) was “gradual, concentration-dependent increases in fluorescence intensity”. The “MitoSOX Red fluorescence (mitochondrial SOX)” value (C. tropicalis cells [2]) was “a little right shift”.
